Results as given in patent publication US10889812B2, “Short non-coding protein regulatory RNAs (sprRNAs) and methods of use” (University of Maryland, Baltimore, priority 2014, dated 2021).

Tests used:
H1437 = experiment: MTT assay, IC50 of CDDP in NSCLC cell lines; assay type: cell-based, Human
Description: (§1) Cell viability and cell growth curve assay were determined by MTT assay and trypan blue exclusion assay, respectively as described previously (Kirino, Y. & Mourelatos, Z. Mouse Piwi-interacting RNAs are 2′-O-methylated at their 3′ termini Nat Struct Mol Biol. 14, 347-348 (2007)). BrieflySpecifically, MTT (5 mg/ml) was added into cells and incubated at culture condition for 3 hours, removed the medium carefully and dissolved formazan in DMSO, assay was used to assess the surviving cells and OD values were measured using Microplate Reader Manager (Bio Rad) at wavelengths of 570/690 nm. For trypan blue exclusion assay, cells were washed in PBS for three times, and dyed in 0.4% tyrpan blue solution. Unstained viable cells were counted in hemocytometer chamber under microscope. Each experiment was performed three times independently.
(§2) To determine if piRNA-Ls play a role in chemo-sensitivity, we first selected 11 piRNA-Ls differentially expressed between NSCLC and HBE cells (Mei Y, Wang Y, Kumari P, et al. A piRNA-like small RNA interacts with and modulates p-ERM proteins in human somatic cells. Nat Commun 6, 7316. doi: 10.1038/ncomms8316 (2015)) and analyzed the relationship between the expression levels and the sensitivities to chemotherapeutic agents commonly used clinically for patients with NSCLC. We established doses of 50% inhibitory concentration (IC50) for CDDP, gemcitabine, and docetaxel in 4 SCC and 4 ADC cell lines based on 3-(4,5-dimethylthiazol-2-yl)-2,5-diphenyltetrazolium bromide (MTT) assay (Table 4). We then measured expression levels of the 11 selected piRNA-Ls using real-time RT-PCR before and 24 h after treatment with both IC50 (H) and IC25 (L) doses for each of the agents. […] Impact of gemcitabine and docetaxel in piR-L-138 expression was also determined in these NSCLC cell lines (FIG. 19). As CDDP is the backbone agent to treat patients with NSCLC, we selected CDDP as the representative agent to further determine the role of piR-L-138 in SCC cells' response to chemotherapy.

H157 = experiment: MTT assay, IC50 of CDDP in NSCLC cell lines; assay type: cell-based, Human
Description: as §1, §2

H1792 = experiment: MTT assay, IC50 of CDDP in NSCLC cell lines; assay type: cell-based, Human
Description: as §1, §2

H1944 = experiment: MTT assay, IC50 of CDDP in NSCLC cell lines; assay type: cell-based, Human
Description: as §1, §2

H226 = experiment: MTT assay, IC50 of CDDP in NSCLC cell lines; assay type: cell-based, Human
Description: as §1, §2

H522 = experiment: MTT assay, IC50 of CDDP in NSCLC cell lines; assay type: cell-based, Human
Description: as §1, §2

H596 = experiment: MTT assay, IC50 of CDDP in NSCLC cell lines; assay type: cell-based, Human
Description: as §1, §2

SKMES-1 = experiment: MTT assay, IC50 of CDDP in NSCLC cell lines; assay type: cell-based, Human; conditions: SKMES-1, MTT assay
Description: as §1, §2

piR-L-138 [1] = experiment: piR-L-138 expression by real-time RT-PCR after chemotherapeutic agent, SCC cell lines; assay type: cell-based, human; conditions: all SCC cell lines, 24 h after treatment
Excerpt: as §2

piR-L-138 [2] = experiment: piR-L-138 expression by real-time RT-PCR after chemotherapeutic agent, ADC cell lines; assay type: cell-based, human; conditions: 24 h after treatment
Excerpt: as §2

H157 and SKMES-1 cells [3] = experiment: MTT assay, cell killing by CDDP after Ant-138; assay type: cell-based, human; conditions: Ant-138 then CDDP (IC25 dose) six hours later, vs Scr pre-treated
Description: as §1
(§3) To determine if the increased piR-L-138 plays a functional role in CDDP treated SCC cells, we used DNA antisense oligos of piR-L-138 (Ant-138) to block piR-L-138 in H157 and SKMES-1 cells. Six hours after Ant-138 treatment, we treated the cells with CDDP (IC25 dose).

H157 and SKMES-1 cells [4] = experiment: Flow cytometry, sub-G1 phase after CDDP; assay type: cell-based, human; conditions: Ant-138 then CDDP (IC25 dose) six hours later, vs Scr
Description: Cell cycle distribution was analyzed by Flow Cytometry (Becton-Dickinson). Cells were synchronized in growth factor-free Keratinocyte-SFM with 2 mM Thymidine (Catalog No. T1895, Sigma-Aldrich) for 24 hrs. Transfection is performed using Lipofectamine™ RNAiMAX (Invitrogen) according to its manual, and the final concentration of annealed oligo RNAs is 400 nM. Four hour after transfection, culture medium was replaced by complete Keratinocyte-SFM supplemented with L-Glutamine, prequalified human recombinant EGF 1-53 and BPE. Cells were harvested at different time points, washed in phosphate-buffer saline (PBS), fixed with ice-cold 70% ethanol, and strained in PI/RNase solution (BD Pharmigen). The samples were analyzed on a FACScan flow cytometer in combination with BD lysis software (Becton-Dickinson).
as §3

SCC cells = experiment: Annexin V staining assay, CDDP-induced apoptosis; assay type: cell-based, human; conditions: pre-treated SCC cells, vs Scr pre-treated
Excerpt: as §3

cleaved PARP = experiment: Western blot of cleaved PARP in CDDP treated SCC cells; assay type: cell-based, human; conditions: pre-treated SCC cells plus CDDP, vs Scr
Excerpt: (§4) Primary antibodies used were: anti-Moesin (1:1,000, Clone Q480, Catalog No. 3150, Cell Signaling), anti-p-ERM (Clone 41A3, Catalog No. 3149, Cell Signaling), anti-Moesin (Clone 38/Moesin, Catalog No. 610401, BD Transduction Laboratories), anti-p-Moesin (Thr558, Catalog No. 12895, Sanra Cruz), anti-β-actin (1:5,000, Catalog No. A228, Sigma-Aldrich), anti-EBP50 (1:100, Clone 6/EBP50, Catalog No. 61160, BD Transduction Laboratories), anti-F-actin (1:100, Clone NH3, Catalog No. MA1-80729, Thermor Fisher), anti-p-Wee 1 (Se53, 1:1000, Catalog No. sc-130223, Sanra Cruz), anti-Wee 1 (C-20, 1:1000, Catalog No. sc-325, Sanra Cruz), anti-p-Cdc2 (Tyr15, 1:1000, Catalog No. 9111, Cell Signaling), anti-p-Cdk (Thr14/Tyr15-R, 1:1000, Catalog No. sc-28435-R, Sanra Cruz), anti-Cdc2 p34 (H-297, 1:1000, Catalog No. sc-747, Sanra Cruz), anti-p-Cdc25C (Ser198, 1:1000, Catalog No. 9529, Cell Signaling), anti-CDK2 (78B2, 1:1000, Catalog No. 2546, Cell Signaling), anti-p-Histone H2AX (Ser139, 20E3, :1000, Catalog No. 9718, Cell Signaling), and anti-GFP (N-terminal, 1:4000, Catalog No. G1544, Sigma). Secondary antibodies used were: Goat anti-Mouse (1:2,500, Catalog No. 31160, Pierce), and Goat anti-Rabbit (1:2,500, Catalog No. 31460, Pierce). Cells were lysed in RIPA buffer (Sigma) on ice after washed in PBS twice, centrifuge at 160,000×g for 10 min at 4° C. […]

MDM2 = experiment: Western blot of MDM2 cleavage and phosphorylation in SCC cells; assay type: cell-based, human; conditions: SCC cells pre-treated, upon CDDP treatment
Excerpt: as §4, with “C. Protein in supernatant was qualified using BCA™ protein assay kit (Thermo Scitific) and denatured in SDS loading buffer in boiling water, run 10% SDS-PAGE gel and transferred to nitrocellulose membrane (Thermo Scitific).” for “C.”
Next, we wanted to explore potential mechanism of piR-L-138-mediated apoptosis inhibition in CDDP treated lung SCC cells. We first analyzed cleaved PARP, a protein marker indicative of apoptosis, and found it was increased in the SCC cells pre-treated with Ant-138 compared with Scr pre-treated cells (FIG. 15d). As both of the SCC cell lines harbor p53 mutations, we analyzed mouse double minute 2 homolog (MDM2) which has been implicated in apoptosis including p53-independent pathway (Bohlman S, Manfredi J J. p53-independent effects of Mdm2. Subcell Biochem. 85,235-46 (2014); Bouska A, Eischen C M. Mdm2 affects genome stability independent of p53. Cancer Res. 69, 1697-701 (2009); Zhang, Z., Li, M., Wang, H., Agrawal, S., and Zhang, R. Antisense therapy targeting MDM2 oncogene in prostate cancer: Effects on proliferation, apoptosis, multiple gene expression, and chemotherapy. Proc. Natl. Acad. Sci. 100, 11636-11641 (2003); Zhang Z, Wang H, Li M, Agrawal S, Chen X, Zhang R. MDM2 Is a Negative Regulator of p21WAF1/CIP1, Independent of p53. […]

H157 tumor xenograft = H157 tumor xenograft model, intra-tumor injection of Ant-138 with CDDP; assay type: in vivo, mice
Excerpt: To further validate the interaction between piR-L-138 and MDM2 at the individual cell level, we performed fluorescence in situ hybridization (FISH) assay using a digoxin (DIG)-labelled RNA probe complimentary to piR-L-138 and an anti-MDM2 antibody. We first tested the probes in HBE4 cells which express high levels of piR-L-138 to ensure the sensitivity and specificity of the piR-L-138 probe and MDM2 antibody (FIG. 16c). […] This is consistent with the observed up-regulation of piR-L-138 in SCC cells upon CDDP treatment and the interaction between piR-L-138 and MDM2. Next, we used H157 tumor xenograft model to determine if targeting piR-L-138 can enhance CDDP-mediated tumor cell apoptosis in SCC in vivo. In this proof of principle experiment, we used intra-tumor injection of Ant-138 (SEQ ID NO:556) which was formulated with MaxSuppr in vivo RNALancerll as described previously (Wiggins J F, et al. Development of a Lung Cancer Therapeutic Based on the Tumor Suppressor MicroRNA-34. Cancer Res. 70, 5923-30(2010)) due to the requirement of very large quantity of formulated reagents needed for systemic delivery. […] Since we were using local injection with sub-optimal dose, such modest anti-tumor activity was expected. We were focusing on determining if Ant-138 increased apoptosis at the sites of injection by analyzing tumor tissue sections for cleaved caspase 3 as an indicator of apoptosis and Ant-138.

lung SCC cell lines = experiment: MTT cell viability after DNA oligo blocking 5 sprRNAs; assay type: cell-based, human; conditions: twenty-four hours after treatment, 4 lung SCC cell lines
Excerpt: (§5) To test the potential impact of the candidate sprRNAs identified by phosphor-protein binding in the phosphorylation status of the proteins, we selected a panel of 5 sprRNAs with sizes ranging from 25-50 nt but sharing a common 25 nt sequence and used DNA oligo complementary to the common sequence (5′-[…]-3′) (SEQ ID NO:489) to block these sprRNAs.

phosphor-proteins = experiment: Western blots of phosphorylated proteins (p-Tyrosine, p-Theronin/Serine); assay type: cell-based, human; conditions: lung SCC cells treated with the DNA oligo
Excerpt: as §5

[NH2][Pt]([NH2])([Cl])[Cl] [CDDP, cisplatin]
IC50 (H1437): 50 µM | IC50 (H157): 80 µM | IC50 (H1792): 50 µM | IC50 (H1944): 100 µM | IC50 (H226): 40 µM | IC50 (H522): 45 µM | IC50 (H596): 30 µM | IC50 (SKMES-1): 10 µM | piR-L-138 levels (piR-L-138 [1]): consistent and substantial increase of piR-L-138 levels | piR-L-138 expression (piR-L-138 [2]): no or much smaller increase of piR-L-138 expression

Ant-138: DNA sequence that is antisense to piR-L-138, SEQ ID NO:556 (antisense AGGTCTCAGAGTAATTCTAGAGCTAAAGT; listed as DNA, chemistry not given here)
cell killing (MTT) (H157 and SKMES-1 cells [3]): significantly increased cell killing | proportion of the sub-G1 phase (H157 and SKMES-1 cells [4]): substantially increased proportion of the sub-G1 phase | sensitivity to CDDP-induced apoptosis (annexin V) (SCC cells): more sensitive to CDDP-induced apoptosis | cleaved PARP (cleaved PARP): increased | MDM2 cleavage (MDM2): substantially reduced MDM2 cleavage | serine-166 phosphorylation in the cleaved MDM2 (MDM2): increase of serine-166 phosphorylation in the cleaved MDM2 | caspase 3 positive tumor cells by Ant-138 level (immunofluorescence) (H157 tumor xenograft; tumors treated with CDDP and Ant-138): significantly concentrated caspase 3 positive tumor cells in areas with high levels of Ant-138 | tumor size (H157 tumor xenograft; with CDDP, intra-tumor injection, vs untreated and CDDP plus Scr): smaller but the difference was only border line statistically | expression of cleaved caspase 3 in tumors (H157 tumor xenograft; with CDDP, vs CDDP and Scr control): higher expression of cleaved caspase 3

DNA oligo complementary to the common sequence: DNA sequence antisense to SEQ ID NO:489 (AntiC, SEQ ID NO:558), blocks 5 sprRNAs sharing a common 25 nt sequence (antisense CGAACCCGGGCCGCGGCGGTGAGA; DNA, backbone and methylation of C not given here)
cell viability (MTT) (lung SCC cell lines): significant growth inhibition | levels of phosphorylated proteins (phosphor-proteins): changes of levels in certain phosphor-proteins
